Assay type in all cases: functional
Test [1] deals with Homo sapiens. Nature of the test: Reduction of cardiovascular events in patient with coronary artery disease and left ventricular systolic dysfunction assessed as relative risk reduction at 7.5 mg, po bid. Set-up: scale not given: the % may be the effect or the level left.
In test [2] the test system is Homo sapiens. Briefly: Reduction of cardiovascular events in patient with acute MI and coronary revascularization assessed as reduction in death at 7.5 mg, po bid. Set-up: scale not given: the % may be the effect or the level left.
In test [3] the test system is Homo sapiens. Nature of the test: Reduction of cardiovascular events in patient with acute MI and coronary revascularization assessed as reduction in heart rate at 7.5 mg, po bid.
Test [4] concerns Homo sapiens. Briefly: Reduction of cardiovascular events in patient with severe chronic heart failure and left ventricular systolic dysfunction assessed as relative risk reduction at 7.5 mg, po bid for 14 days. Set-up: scale not given: the % may be the effect or the level left.
Test [5] concerns Homo sapiens. Briefly: Reduction of cardiovascular events in patient with severe chronic heart failure assessed as reduction in death at 7.5 mg, po bid for 14 days. Set-up: scale not given: the % may be the effect or the level left.
Test [6] relates to Homo sapiens. Nature of the test: Reduction of cardiovascular events in patient with severe chronic heart failure assessed as reduction in heart rate at 7.5 mg, po bid for 14 days.

Some results are limits rather than exact numbers.

With `COc1cc2c(cc1OC)CC(=O)N(CCCN(C)C[C@H]1Cc3cc(OC)c(OC)cc31)CC2` [IVABRADINE], the Activity result is “<=24%” with Homo sapiens [1]; 31% with Homo sapiens [2]; 12 bpm in the test on Homo sapiens [3]; 18% with Homo sapiens [4]; 26% in the test with Homo sapiens [5]; 15 bpm in the test with Homo sapiens [6].

(Values after ChEMBL document CHEMBL4219196, “Next-generation small molecule therapies for heart failure: 2015 and beyond” (2018).)
